The format of this data set is physicochemical. The text has this: The bidentate nature of the OC6H6N (referred to herein as OPy) group, the steric bulk of the OC6H2(CH2N(CH3)2)3-2,4,6 (referred to herein as TAP) ligand, and the amino functionality of the OC6H2(CH2N(CH3)2)3-2,4,6 ligand combine to effectively limit conventional hydrolysis of the alkoxide while maintaining solubility in aqueous media. Therefore, unlike many other similar compounds, the compound of the present invention is both water soluble and stable in an aqueous solution.
The inhibition of hydrolysis at ligand sites even when the molecule is dispersed in water is attributed to steric constraints imposed by the bidentate pyridine carbinoxide (OPy) and monodentate tri-amino-phenoxide (TAP) groups. It is believed that the amino groups present on the TAP ligand further facilitate water solubilization through H-bonding with the water. The inert character of the molecule to conventional hydrolysis chemistry enables an evaluation of photoexcitation as a means to influence the evolution of intermolecular bond formation.

Structures are written as SMILES.

Turning to `CN(C)Cc1cc(CN(C)C)c([O][Ti]([O]Cc2ccccn2)([O]Cc2ccccn2)[O]c2c(CN(C)C)cc(CN(C)C)cc2CN(C)C)c(CN(C)C)c1` [(OC6H6N)2Ti(OC6H2(CH2N(CH3)2)3-2,4,6)2], the “stability in aqueous solution (resistance to conventional hydrolysis)” value was “water-stable” and the water solubility entry is “water-soluble”.

(Values after patent publication US7741486B1, “Water-soluble titanium alkoxide material” (Sandia Corporation, priority 2008, dated 2010).)
